Results taken from the supplement of paper PMC5908809.

How the values were obtained:
[1] = system: normal NK cells expanded with K562-aAPC; test: percent inhibition of viability; higher = more inhibition; conditions: 72 h, IL-2 2.5 ng/mL
Procedure: (§1)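 Drug sensitivity and resistance testing on K562-aAPC-expanded normal NK cells: 5 concentrations (10-fold steps over a 10,000-fold range), 72 h at 37 °C, viability by CellTiter-Glo normalised to DMSO and benzethonium chloride controls; DSS from the fitted curve.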

DERL-7 (IL-2 2.5 ng/mL) [2] = test: as above; conditions: 72 h
IMC-1 (IL-2 20 ng/mL) [3] = test: as above; conditions: 72 h
KAI3 (IL-2 2.5 ng/mL) [4] = test: as above; conditions: 72 h
KHYG-1 (IL-2 2.5 ng/mL) [5] = test: as above; conditions: 72 h
NK-92 (IL-2 2.5 ng/mL) [6] = test: as above; conditions: 72 h
NK-YS (IL-2 2.5 ng/mL) [7] = test: as above; conditions: 72 h
NKL (IL-2 2.5 ng/mL) [8] = test: as above; conditions: 72 h
SNK-6 (IL-2 2.5 ng/mL) [9] = test: as above; conditions: 72 h
YT (IL-2 2.5 ng/mL) [10] = test: as above; conditions: 72 h
[11] = system: normal primary NK cells, pool 1 (3 donors) (IL-2 2.5 ng/mL); test: as above; conditions: 72 h
[12] = system: normal primary NK cells, pool 1 (3 donors), resting (IL-2 0 ng/mL); test: as above; conditions: 72 h
[13] = system: normal primary NK cells, pool 2 (3 donors) (IL-2 2.5 ng/mL); test: as above; conditions: 72 h
[14] = system: normal primary NK cells, pool 3 (3 donors) (IL-2 2.5 ng/mL); test: as above; conditions: 72 h
[15] = system: normal NK cells expanded with K562-aAPC; test: drug sensitivity score (DSS) (DSS units); higher = more sensitive; extreme values may be limits of the assay; conditions: 72 h; IL-2 2.5 ng/mL
Procedure: as §1

DERL-7 (IL-2 2.5 ng/mL) [16] = test: as above; conditions: 72 h
IMC-1 (IL-2 20 ng/mL) [17] = test: as above; conditions: 72 h
KAI3 (IL-2 2.5 ng/mL) [18] = test: as above; conditions: 72 h
KHYG-1 (IL-2 2.5 ng/mL) [19] = test: as above; conditions: 72 h
NK-92 (IL-2 2.5 ng/mL) [20] = test: as above; conditions: 72 h
NK-YS (IL-2 2.5 ng/mL) [21] = test: as above; conditions: 72 h
NKL (IL-2 2.5 ng/mL) [22] = test: as above; conditions: 72 h
SNK-6 (IL-2 2.5 ng/mL) [23] = test: as above; conditions: 72 h
YT (IL-2 2.5 ng/mL) [24] = test: as above; conditions: 72 h
[25] = system: normal primary NK cells, pool 1 (3 donors) (IL-2 2.5 ng/mL); test: as above; conditions: 72 h
[26] = system: normal primary NK cells, pool 1 (3 donors), resting (IL-2 0 ng/mL); test: as above; conditions: 72 h
[27] = system: normal primary NK cells, pool 2 (3 donors) (IL-2 2.5 ng/mL); test: as above; conditions: 72 h
[28] = system: normal primary NK cells, pool 3 (3 donors) (IL-2 2.5 ng/mL); test: as above; conditions: 72 h

CCc1cc(Nc2nccc(-c3c(-c4ccc(OC)c(C(=O)Nc5c(F)cccc5F)c4)nc4ccccn34)n2)c(OC)cc1N1CCC(N2CCN(S(C)(=O)=O)CC2)CC1 (max concentration tested 10000 nM)
percent inhibition of viability [%]
Conditions	1 nM	10 nM	100 nM	1000 nM	10000 nM
DERL-7 (IL-2 2.5 ng/mL) [2]	-3.29	4.96	-4.2	9.43	2.99
IMC-1 (IL-2 20 ng/mL) [3]	-4.74	-7.3	-8.28	-4.78	-4.76
KAI3 (IL-2 2.5 ng/mL) [4]	12.8	4.45	3.16	-0.26	-1.06
KHYG-1 (IL-2 2.5 ng/mL) [5]	-1.04	-3.94	-1.22	-2.02	-0.15
NK-92 (IL-2 2.5 ng/mL) [6]	-8.65	-15.5	0.66	9.19	19.7
NK-YS (IL-2 2.5 ng/mL) [7]	-1.69	-4.53	2.55	3.02	7.23
NKL (IL-2 2.5 ng/mL) [8]	-12.8	-7.57	-8.59	-4.55	-4.74
SNK-6 (IL-2 2.5 ng/mL) [9]	-2.73	-8.81	-9.86	-16	-27.5
YT (IL-2 2.5 ng/mL) [10]	2.55	-0.94	2.88	-1.24	0.54
[1]	-0.94	-0.53	-2.18	1.87	0.97
[11]	-5.95	-3.54	3.36	-0.74	-0.37
[12]	-6.68	-7.72	5.14	4.15	11.5
[13]	-9.34	1.62	-10.3	-0.25	-11.9
[14]	1.45	1.94	-1.25	-1.57	-1.55

Conditions	drug sensitivity score
DERL-7 (IL-2 2.5 ng/mL) [16]	0
IMC-1 (IL-2 20 ng/mL) [17]	0
KAI3 (IL-2 2.5 ng/mL) [18]	0
KHYG-1 (IL-2 2.5 ng/mL) [19]	0
NK-92 (IL-2 2.5 ng/mL) [20]	1.41
NK-YS (IL-2 2.5 ng/mL) [21]	0
NKL (IL-2 2.5 ng/mL) [22]	0
SNK-6 (IL-2 2.5 ng/mL) [23]	0
YT (IL-2 2.5 ng/mL) [24]	0
[15]	0
[25]	0
[26]	0
[27]	0
[28]	0

C#Cc1cccc(Nc2ncnc3cc(OCCOC)c(OCCOC)cc23)c1 [Erlotinib] (max concentration tested 10000 nM)
percent inhibition of viability [%]
Conditions	1 nM	10 nM	100 nM	1000 nM	10000 nM
DERL-7 (IL-2 2.5 ng/mL) [2]	0.1	-2.35	-1.33	1.39	48.4
IMC-1 (IL-2 20 ng/mL) [3]	1.33	9.48	7.46	12.3	22.8
KAI3 (IL-2 2.5 ng/mL) [4]	1.13	8.32	-5.25	20	58.5
KHYG-1 (IL-2 2.5 ng/mL) [5]	3.49	6.34	8.19	9.39	47.6
NK-92 (IL-2 2.5 ng/mL) [6]	9.74	4.56	24.3	25.9	43.1
NK-YS (IL-2 2.5 ng/mL) [7]	1.58	1.15	0.89	5.14	24.1
NKL (IL-2 2.5 ng/mL) [8]	5.31	4.23	11.4	14.5	38.5
SNK-6 (IL-2 2.5 ng/mL) [9]	7.98	8.62	18.3	17.6	32.2
YT (IL-2 2.5 ng/mL) [10]	8.58	6.57	10.3	17.4	38.6
[1]	0.68	3.68	2.85	12.2	44.6
[11]	0.75	-3.53	2.15	-7.62	24.8
[12]	-2.01	-10.5	-8.04	-1.92	55.7
[13]	-6.62	-1.77	13.4	4.86	41.7
[14]	-5.26	-4.35	6.24	-3.65	27.2

Conditions	drug sensitivity score
DERL-7 (IL-2 2.5 ng/mL) [16]	2.71
IMC-1 (IL-2 20 ng/mL) [17]	1.94
KAI3 (IL-2 2.5 ng/mL) [18]	6.03
KHYG-1 (IL-2 2.5 ng/mL) [19]	4.03
NK-92 (IL-2 2.5 ng/mL) [20]	7.75
NK-YS (IL-2 2.5 ng/mL) [21]	1.63
NKL (IL-2 2.5 ng/mL) [22]	3.76
SNK-6 (IL-2 2.5 ng/mL) [23]	5.2
YT (IL-2 2.5 ng/mL) [24]	4.27
[15]	4.14
[25]	0.64
[26]	2.81
[27]	2.92
[28]	0.89
